According to patent publication US8569336B2, “Compounds for the treatment of inflammatory disorders” (priority 2008, dated 2013):
Like-named read-outs stand apart in the source and are kept apart here.

Columns and labels:
[1] = target: T1, purified catalytic domain of recombinant human TACE (rhTACEc) (Homo sapiens, UniProt P78536, N452Q/S266A); test: TACE kinetic assay: cleavage of internally quenched peptide substrate TNF-FRET 2 (Ki); format: biochemical; settings: TNF-FRET 2 substrate
T1 construct: 6xHis (C); made in house; host or cells: baculovirus/Hi5 insect cells
T1 sequence (P78536 215-477 S266A/N452Q): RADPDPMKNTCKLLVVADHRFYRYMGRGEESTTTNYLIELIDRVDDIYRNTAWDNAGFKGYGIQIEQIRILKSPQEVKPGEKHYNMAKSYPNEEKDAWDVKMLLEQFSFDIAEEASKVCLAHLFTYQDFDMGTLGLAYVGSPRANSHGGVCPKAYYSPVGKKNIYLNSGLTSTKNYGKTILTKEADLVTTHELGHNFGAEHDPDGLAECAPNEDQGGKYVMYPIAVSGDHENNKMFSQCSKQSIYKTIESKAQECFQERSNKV

[2] = test system: TNF-α production from human whole blood; test: Inhibition of TNF-α production from human whole blood (hWBA), LPS stimulated, ELISA; format: cell-based; settings: Homo sapiens, TNF-α by ELISA, read-out: hWBA (IC50)
[3] = 3.5 h, human whole blood diluted 1:1, LPS stimulated, 3.5 h
[4] = human whole blood diluted 1:1, LPS stimulated
[5] = LPS-stimulated human whole blood

Compound	Ki ([1]; read-out: Ki)	IC50 [2, 3]	IC50 [2, 4]	IC50 [2, 5]	Ki ([1]; Ki)
COc1ccc2c(c1)C(=O)N(C[C@@]1(c3cc4cc(NS(C)(=O)=O)ccc4o3)NC(=O)NC1=O)C2 [Compound 2222]	0.701 nM	343 nM			
COc1ccc2c(c1)C(=O)N(C[C@@]1(c3cc4cc(CO)ccc4o3)NC(=O)NC1=O)C2 [Compound 2178]	0.546 nM	518 nM			
COCCNC(=O)c1cnc2cc([C@]3(CN4Cc5ccc(OC)cc5C4=O)NC(=O)NC3=O)oc2c1 [Compound 2467]	0.72 nM		657 nM		
COc1ccc2c(c1)C(=O)N(C[C@@]1(c3cc4c(o3)CCN(S(C)(=O)=O)C4)NC(=O)NC1=O)C2 [Compound 316]	0.82 nM			497 nM	
COc1ccc2c(c1)C(=O)N(C[C@@]1(c3cc4cnc(C5=NCCN5)cc4o3)NC(=O)NC1=O)C2 [Compound 2273]	0.124 nM	747 nM			
COc1ccc2c(c1F)C(=O)N(C[C@@]1(c3cc4cc(-c5c(C)n[nH]c5C)c(F)cc4o3)NC(=O)NC1=O)C2 [Compound 1183]	0.14 nM			232 nM	
COc1ccc2c(c1)C(=O)N(C[C@@]1(c3cc4nc(N5CCNCC5)ccc4o3)NC(=O)NC1=O)C2 [Compound 2126]	0.661 nM	194 nM			
CN(C)C1CCN(c2ccc3oc(C4(CN5CCc6ccsc6C5=O)NC(=O)NC4=O)cc3n2)CC1 (stereo not drawn) [Compound 2495]	0.71 nM		650 nM		
CCCN1CCC(c2nc3cc([C@]4(CN5Cc6ccc(OC)c(F)c6C5=O)NC(=O)NC4=O)oc3cc2F)CC1 [Compound 1324]				248 nM	0.58 nM
CNc1cc2oc([C@]3(CN4Cc5ccc(OC)cc5C4=O)NC(=O)NC3=O)cc2cn1 [Compound 2291]	0.578 nM		3420 nM		
COc1ccc2c(c1)C(=O)N(C[C@@]1(c3cc4ccc(C(=O)NC[C@H](C)O)cc4o3)NC(=O)NC1=O)C2 [Compound 2415]	0.51 nM		452 nM		
CCN(CC)CCNC(=O)c1ccc2cc([C@]3(CN4Cc5ccc(OC)cc5C4=O)NC(=O)NC3=O)oc2c1 [Compound 2419]	0.79 nM		332 nM		
COc1ccc2c(c1)C(=O)N(C[C@@]1(c3cc4nc(C5CC5)ccc4o3)NC(=O)NC1=O)C2 [Compound 1508]	0.9 nM			2430 nM	
COc1ccc2c(c1)C(=O)N(C[C@@]1(c3ccc(-c4ccc(C5(CN)NC(=O)NC5=O)cc4)cc3)NC(=O)NC1=O)C2 (stereo partly drawn) [Compound 2175]	2.08 nM	1760 nM			
COc1ccc2c(c1)C(=O)N(C[C@@]1(c3cc4cnc(O)cc4o3)NC(=O)NC1=O)C2 [Compound 2312]	1.06 nM		218 nM		
COc1ccc2c(c1)C(=O)N(C[C@@]1(c3cc4ccc(C(=O)N5CCN(C)CC5)cc4o3)NC(=O)NC1=O)C2 [Compound 2423]	1.01 nM		1090 nM		
COc1ccc2c(c1)C(=O)N(C[C@@]1(c3cc4nc(-c5ccnc(N6CCNCC6)c5)ccc4o3)NC(=O)NC1=O)C2 [Compound 1720]				224 nM	0.31 nM
CNC(=O)c1cnc(C)c2cc([C@]3(CN4Cc5ccc(OC)cc5C4=O)NC(=O)NC3=O)oc12 [Compound 2447]	0.54 nM		554 nM		
COc1ccc2c(c1)C(=O)N(C[C@@]1(c3cc4cc(C(=O)NCCN)c(F)cc4o3)NC(=O)NC1=O)C2 [Compound 1274]	0.5 nM	142 nM			
COc1ccc2c(c1)C(=O)N(C[C@@]1(c3cc4cc(C(=O)NCCN(C)CCNC(=O)OC(C)(C)C)c(F)cc4o3)NC(=O)NC1=O)C2 [Compound 1278]	1.8 nM	3260 nM			
COc1ccc2c(c1)C(=O)N(C[C@@]1(c3cc4nc(Nc5ccncc5)ccc4o3)NC(=O)NC1=O)C2 [Compound 2136]	0.427 nM	247 nM			
COc1ccc2c(c1F)C(=O)N(C[C@@]1(c3cc4nc(N5CCCNCC5)ccc4o3)NC(=O)NC1=O)C2 [Compound 1712]	0.83 nM			189 nM	
COc1ccc2c(c1F)C(=O)N(C[C@@]1(c3cc4nc(-c5ccnc(N6CCNCC6)c5)ccc4o3)NC(=O)NC1=O)C2 [Compound 1719]	0.24 nM			148 nM	
COc1ccc2c(c1)C(=O)N(C[C@@]1(c3cc4nc(-c5cncc(C#N)c5)ccc4o3)NC(=O)NC1=O)C2 [Compound 2471]	0.779 nM		3660 nM		

Compound	Ki ([1]; read-out: Ki)	IC50 [2, 3]	IC50 [2, 4]	IC50 [2, 5]	Ki ([1]; Ki)
COc1ccc2c(c1)C(=O)N(C[C@@]1(c3cc4nc(-c5cccc(O)c5)ccc4o3)NC(=O)NC1=O)C2 [Compound 1902]	0.28 nM			998 nM	
COc1ccc2c(c1)C(=O)N(C[C@@]1(c3cc4nc(Nc5nccs5)ccc4o3)NC(=O)NC1=O)C2 [Compound 2113]	0.62 nM	1400 nM			
COc1ccc2c(c1F)C(=O)N(C[C@@]1(c3cc4cnc(C)nc4o3)NC(=O)NC1=O)C2 [Compound 304]	1.23 nM			300 nM	
COc1ccc2c(c1F)C(=O)N(C[C@@]1(c3cc4cc5c(c(F)c4o3)CNC5=O)NC(=O)NC1=O)C2 [Compound 2500]	0.52 nM		282 nM		
COc1ccc2c(c1)C(=O)N(C[C@@]1(c3cc4nc(N5CCC(OC)(OC)CC5)ccc4o3)NC(=O)NC1=O)C2 [Compound 2109]	0.75 nM	161 nM			
COc1ccc2c(c1F)C(=O)N(C[C@@]1(c3cc4ccc(NC(C)=O)nc4o3)NC(=O)NC1=O)C2 [Compound 505]	0.558 nM			252 nM	
COc1ccc2c(c1)C(=O)N(C[C@@]1(c3cc4ccc(C(=O)N(C)C)cc4o3)NC(=O)NC1=O)C2 [Compound 2414]	0.41 nM		990 nM		
CCNc1nnc(-c2ccc3cc([C@]4(CN5Cc6ccc(OC)cc6C5=O)NC(=O)NC4=O)oc3c2)o1 [Compound 2193]	0.253 nM	170 nM			
COc1ccc2c(c1)C(=O)N(C[C@@]1(c3cc4ncc(C(=O)NC5CC5)cc4o3)NC(=O)NC1=O)C2 [Compound 1931]	0.56 nM			321 nM	
COc1ccc2c(c1)C(=O)N(C[C@@]1(c3cc4nc(Nc5c(C)noc5C)ccc4o3)NC(=O)NC1=O)C2 [Compound 2133]	0.635 nM	460 nM			
CSc1ccc2c(c1)C(=O)N(C[C@@]1(c3cc4cnccc4o3)NC(=O)NC1=O)C2 [Compound 309]	0.377 nM			662 nM	
COc1ccc2c(c1F)C(=O)N(C[C@@]1(c3ccc(-c4ccc(N)nc4)o3)NC(=O)NC1=O)C2 [Compound 310]	0.0208 nM			244 nM	
COc1ccc2c(c1)C(=O)N(C[C@@]1(c3cc4nc(-c5ccc(F)c(C#N)c5)ccc4o3)NC(=O)NC1=O)C2 [Compound 1507]	0.7 nM			4120 nM	
COc1ccc2c(c1)C(=O)N(C[C@@]1(c3cc4cc(CNc5ccccn5)ccc4o3)NC(=O)NC1=O)C2 [Compound 2181]	0.343 nM	1650 nM			
COc1ccc2c(c1)C(=O)N(C[C@@]1(c3cc4c(o3)CNCC4)NC(=O)NC1=O)C2 [Compound 2266]	7.83 nM	860 nM			
COc1ccc2c(c1)C(=O)N(C[C@@]1(c3cc4cc(CNCCN)ccc4o3)NC(=O)NC1=O)C2 [Compound 2179]	0.713 nM	376 nM			
COc1ccc2c(c1)C(=O)N(C[C@@]1(c3cc4cc(-c5cc(N)n[nH]5)ccc4o3)NC(=O)NC1=O)C2 [Compound 2246]	0.523 nM	110 nM			
COc1ccc2c(c1F)C(=O)N(C[C@@]1(c3cc4cnc(Cl)cc4o3)NC(=O)NC1=O)C2 [Compound 2217]	0.604 nM	859 nM			
COc1ccc2c(c1)C(=O)N(C[C@@]1(c3cc4ccc(C(=O)NC[C@@H](C)O)cc4o3)NC(=O)NC1=O)C2 [Compound 2416]	0.56 nM		891 nM		
COc1ccc2c(c1)C(=O)N(C[C@@]1(c3cc4nc(C(=O)NC5CCN(C)CC5)ccc4o3)NC(=O)NC1=O)C2 [Compound 1911]	1.32 nM			317 nM	
COc1ccc2c(c1F)C(=O)N(C[C@@]1(c3cc4nc(-c5cccnc5)c(F)cc4o3)NC(=O)NC1=O)C2 [Compound 1315]	0.09 nM			1120 nM	
CCOC(=O)c1c(O)nc(C)c2cc([C@]3(CN4Cc5ccc(OC)cc5C4=O)NC(=O)NC3=O)oc12 [Compound 2434]	1.32 nM		174 nM		
O=C1NC(=O)[C@](CN2Cc3ccc(O)cc3C2=O)(c2cc3cnccc3o2)N1 [Compound 2188]	2.26 nM	2990 nM			
COc1ccc2c(c1)C(=O)N(C[C@@]1(c3cc4nc(N5C[C@@H](O)CC5=O)ccc4o3)NC(=O)NC1=O)C2 [Compound 1531]	0.65 nM			125 nM	
